Measured values from patent publication US10098840B2, “Nanoparticulate composition containing antibiotics for intramammary administration in animals” (priority 2010, dated 2018).

Legend:
[1] = In vitro release profile of cloxacillin benzathine by direct dialysis in PBS:PEG and PBS:milk; format: physicochemical; conditions: 37° C.; PBS:PEG vs PBS:milk
Experimental: The evaluation of the release profile in vitro of the cloxacillin benzathine from the nanocarriers of reservoir type was performed according to the direct dialysis technique in two different release environments. Dialysis bags were inserted in containers containing a buffered saline solution and 1% polyethylene glycol 300 (PBS:PEG) or a buffered saline containing 1% of skimmed milk (PBS:milk) under 37° C. with moderate stirring. […] In pre-defined lapses, aliquots were removed and the environment was re-added with the same volume withdrawn. Right after, the samples were prepared and the supernatant dosed.

[2] = Degradation of the drug by HPLC during the dissolution test at pH 7.4; format: physicochemical; conditions: until 540 minutes of test
Experimental: In this work, the dissolution was conducted in pH 7.4 for it is about the pH of the milk of animals with mastitis (Gruet et al., 2001).

degradation of the drug [2]: no degradation
SMILES: Cc1onc(-c2ccccc2Cl)c1C(=O)N[C@@H]1C(=O)N2[C@@H]1SC(C)(C)[C@@H]2C(=O)O [CLOXB, cloxacillin benzathine]
release depending on the environment (1% PEG vs 1% milk), in words [1]: release was bigger in environment containing 1% of PEG
